Experiments:
[1] = molecular target: T1, acyl-CoA:cholesterol acyl transferase (ACAT) (Rattus norvegicus, UniProt Q7TQM4); assay: Inhibitory action against acyl-CoA:cholesterol acyl transferase (ACAT), formation of labeled cholesterol ester, small intestine mucosal microsome fraction; type: biochemical, male Sprague-Dawley rat; details: 10^-6 M; read-out: ACAT Inhibitory Rate (%)
T1 construct: small intestine mucosal microsome fraction of a 6-week-old male Sprague-Dawley rat; from tissue; host or cells: rat small intestine mucosa, microsome fraction
T1 sequence (Q7TQM4 1-524): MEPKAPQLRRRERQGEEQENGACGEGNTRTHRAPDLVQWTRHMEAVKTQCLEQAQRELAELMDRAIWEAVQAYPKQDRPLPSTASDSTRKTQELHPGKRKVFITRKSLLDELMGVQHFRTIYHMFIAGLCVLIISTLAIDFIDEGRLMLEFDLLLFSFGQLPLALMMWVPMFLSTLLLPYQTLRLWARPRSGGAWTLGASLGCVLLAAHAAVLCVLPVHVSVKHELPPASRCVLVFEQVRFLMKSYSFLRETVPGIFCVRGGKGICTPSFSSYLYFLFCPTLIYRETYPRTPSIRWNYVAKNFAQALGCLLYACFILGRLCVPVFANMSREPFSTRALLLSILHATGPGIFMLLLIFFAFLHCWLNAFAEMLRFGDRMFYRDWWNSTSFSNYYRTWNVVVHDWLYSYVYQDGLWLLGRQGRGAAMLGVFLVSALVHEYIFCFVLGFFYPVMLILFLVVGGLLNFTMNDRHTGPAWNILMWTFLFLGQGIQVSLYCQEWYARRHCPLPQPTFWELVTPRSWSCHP
Experimental: An ACAT enzyme preparation was prepared from a small intestine mucosal microsome fraction of a 6-week-old male Sprague-Dawley rat, previously fasted for 20 hours, in accordance with the method described by Heider et al. in the Journal of Lipid Research, Vol. 24, page 1127 (1982).
ACAT activity was determined by measuring the amount of labeled cholesterol ester produced from [1-^14 C]-oleoyl-CoA and endogenous cholesterol, in accordance with the method of Helgerud et al. [Journal of Lipid Research, Vol. 22, page 271 (1981)].

[2] = Hypocholesterolemic activity (cholesterol-lowering activity) in hypercholesterolemic mice on high cholesterol-cholic acid diet; type: in vivo, ICR mice; details: vs control groups; for Reduction % HPL: heparin precipitating lipoproteins; for Reduction % cholesterol: serum
Experimental: Groups of 6 ICR mice (2 subgroups of 3 mice) were made hypercholesterolemic by being fed a high cholesterol-cholic acid diet for 7 days and administered with test compounds orally on the last two days. One-half of the total does was given on day 6 followed by the other half on day 7. After fasting overnight (16 hours after the last dose), the animals were sacrificed and sera were collected together for the each subgroup for measuring the levels of cholesterol and heparin precipitating lipoproteins (HPL). Both cholesterol and HPL levels were measured with autonalyzer by the enzymatic CHOD-PAP method for the former and by the turbidimetric method of Shurr et. al. [in C. E. Dau ed. Atherosclerosis Drug Discovery, Plenum Publishing, New York, pp. 215-229 & 231-249, 1976.] for the latter.

| inhibition at 1 µM [1] | SMILES | other results |
| --- | --- | --- |
| 99.2% | CC(C)c1cccc(C(C)C)c1NC(=O)Cc1oc(=O)c2ccc(Cl)cc2c1-c1ccccc1 [Example 48, N-[2,6-Bis(1-methylethyl)phenyl]-6-chloro-1-oxo-4-phenyl-1H-2-benzopyran-3-acetamide] | Reduction % HPL ([2]; 3 mg/kg po): 26%; Reduction % cholesterol ([2]; 3 mg/kg po): 27%; Reduction % HPL ([2]; 10 mg/kg po): 39%; Reduction % cholesterol ([2]; 10 mg/kg po): 32% |
| 99.5% | COc1ccccc1-c1c(CC(=O)Nc2c(OC)cccc2OC)oc(=O)c2ccccc12 [Example 74, N-(2,6-Dimethoxyphenyl)-4-(2-methoxyphenyl)-1-oxo-1H-2-benzopyran-3-acetamide] | Reduction % HPL ([2]; 3 mg/kg po): 32%; Reduction % cholesterol ([2]; 3 mg/kg po): 29%; Reduction % HPL ([2]; 10 mg/kg po): 37%; Reduction % cholesterol ([2]; 10 mg/kg po): 33% |
| 98.4% | COc1cc(OC)c(NC(=O)Cc2c(-c3ccccc3)c3cc(C)ccc3oc2=O)c(OC)c1 [Example 54, 6-Methyl-2-oxo-4-phenyl-N-(2,4,6-trimethoxyphenyl)-2H-1-benzopyran-3-acetamide] |  |
| 98.2% | COc1ccccc1-c1c(CC(=O)Nc2c(C(C)C)cccc2C(C)C)c(=O)oc2ccc(Cl)cc12 [Example 92, N-[2,6-Bis(1-methylethyl)phenyl]-6-chloro-4-(2-methoxyphenyl)-2-oxo-2H-1-benzopyran-3-acetamide] |  |
| 99.3% | CC(C)c1cccc(C(C)C)c1NC(=O)C[C@@H]1C(=O)N(C)c2ccc(Cl)cc2[C@H]1c1ccccc1Cl (relative stereo) [Example 21, 3,4-trans-N-[2,6-Bis(1-methylethyl)phenyl]-6-chloro-4-(2-chlorophenyl)-1,2,3,4-tetrahydro-1-methyl-2-oxo-3-quinolineacetamide] |  |
| 97.5% | Cc1cc(C)c(NC(=O)C[C@@H]2C(=O)N(C)c3ccc(Cl)cc3[C@H]2c2ccccc2)c(C)c1 (relative stereo) [Example 31, 3,4-trans-6-Chloro-1,2,3,4-tetrahydro-1-methyl-2-oxo-4-phenyl-N-(2,4,6-trimethylphenyl)-3-quinolineacetamide] |  |
| 99.1% | CCOc1cccc(OCC)c1NC(=O)Cc1c(-c2ccccc2C(F)(F)F)c2cc(Cl)ccc2oc1=O [Example 95, 6-Chloro-N-(2,6-diethoxyphenyl)-2-oxo-4-(2-trifluoromethylphenyl)-2H-1-benzopyran-3-acetamide] |  |
| 92.8% | O=C(Cc1oc(=O)c2ccc(Cl)cc2c1-c1ccccc1)Nc1ccc(F)cc1F [Example 49, 6-Chloro-N-(2,4-difluorophenyl)-1-oxo-4-phenyl-1H-2-benzopyran-3-acetamide] |  |
| 99.3% | Cc1ccccc1-c1c(CC(=O)Nc2c(C(C)C)cccc2C(C)C)c(=O)oc2ccc(Cl)cc12 [Example 82, N-[2,6-Bis(1-methylethyl)phenyl]-6-chloro-4-(2-methylphenyl)-2-oxo-2H-1-benzopyran-3-acetamide] | Reduction % HPL ([2]; 3 mg/kg po): 37%; Reduction % cholesterol ([2]; 3 mg/kg po): 31%; Reduction % HPL ([2]; 10 mg/kg po): 50%; Reduction % cholesterol ([2]; 10 mg/kg po): 40% |
| 95.7% | CC(C)c1cccc(C(C)C)c1NC(=O)Cc1c(-c2ccccc2)c2cc(Cl)ccc2oc1=O [Example 50, N-[2,6-Bis(1-methylethyl)phenyl]-6-chloro-2-oxo-4-phenyl-2H-1-benzopyran-3-acetamide] |  |
| 97.9% | Cc1cccc(C(C)C)c1NC(=O)C[C@H]1C(=O)N(C)c2ccc(Cl)cc2[C@H]1c1ccccc1 (relative stereo) [Example 22, 3,4-cis-6-Chloro-1,2,3,4-tetrahydro-1-methyl-N-[2-methyl-6-(1-methylethyl)phenyl]-2-oxo-4-phenyl-3-quinolineacetamide] |  |
| 99.5% | COc1cccc(OC)c1NC(=O)Cc1c(-c2ccccc2C)c2cc(Cl)ccc2oc1=O [Example 84, 6-Chloro-N-(2,6-dimethoxyphenyl)-4-(2-methylphenyl)-2-oxo-2H-1-benzopyran-3-acetamide] | Reduction % HPL ([2]; 3 mg/kg po): 28%; Reduction % cholesterol ([2]; 3 mg/kg po): 15%; Reduction % HPL ([2]; 10 mg/kg po): 47%; Reduction % cholesterol ([2]; 10 mg/kg po): 33% |
| 98.9% | CC(C)c1cccc(C(C)C)c1NC(=O)C[C@@H]1C(=O)N(C)c2ccc(Cl)cc2[C@H]1c1ccccc1 (relative stereo) [Example 33, 3,4-trans-N-[2,6-Bis(1-methylethyl)phenyl]-6-chloro-1,2,3,4-tetrahydro-1-methyl-2-oxo-4-phenyl-3-quinolineacetamide] |  |
| 97.9% | Cc1ccc2oc(=O)c(CC(=O)Nc3ccc(F)cc3F)c(-c3ccccc3)c2c1 [Example 55, N-(2,4-Difluorophenyl)-6-methyl-2-oxo-4-phenyl-2H-1-benzopyran-3-acetamide] |  |
| 97% | CC(C)c1cccc(C(C)C)c1NC(=O)CC1=C(c2ccccc2)c2cc(Cl)ccc2N(C)C1 [Example 99, N-[2,6-Bis(1-methylethyl)phenyl]-6-chloro-1,2-dihydro-1-methyl-4-phenyl-3-quinolineacetamide] |  |
| 90.3% | Cc1cc2c(-c3ccccc3)c(CC(=O)Nc3c(C(C)C)cccc3C(C)C)n(C)c(=O)c2cc1C [Example 47, N-[2,6-Bis(1-methylethyl)phenyl]-1,2-dihydro-2,6,7-trimethyl-1-oxo-4-phenyl-3-isoquinolineacetamide] |  |
| 97.3% | COc1cc2c(cc1OC)N(C)C(=O)C(CC(=O)Nc1c(C(C)C)cccc1C(C)C)C2c1ccccc1 (stereo not drawn) [Example 18, N-[2,6-Bis(1-methylethyl)phenyl]-1,2,3,4-tetrahydro-6,7-dimethoxy-1-methyl-2-oxo-4-phenyl-3-quinolineacetamide] |  |
| 99% | CCOc1cccc(OCC)c1NC(=O)Cc1c(-c2ccccc2OC)c2cc(Cl)ccc2oc1=O [Example 93, 6-Chloro-N-(2,6-diethoxyphenyl)-4-(2-methoxyphenyl)-2-oxo-2H-1-benzopyran-3-acetamide] |  |
| 99.5% | Cc1ccc2c(c1)N(c1ccccc1)C(CC(=O)Nc1c(C(C)C)cccc1C(C)C)C(=O)N2C (stereo not drawn) [Example 64, N-[2,6-Bis(1-methylethyl)phenyl]-1,2,3,4-tetrahydro-1,6-dimethyl-2-oxo-4-phenyl-3-quinoxalineacetamide] |  |
| 99.7% | CCOc1cccc(OCC)c1NC(=O)Cc1c(-c2ccccc2C)c2cc(Cl)ccc2oc1=O [Example 88, 6-Chloro-N-(2,6-diethoxyphenyl)-4-(2-methylphenyl)-2-oxo-2H-1-benzopyran-3-acetamide] |  |
| 96% | CC(C)c1cccc(C(C)C)c1NC(=O)C[C@H]1C(=O)N(C)c2ccc(Cl)cc2[C@H]1c1ccccc1 (relative stereo) [Example 32, 3,4-cis-N-[2,6-Bis(1-methylethyl)phenyl]-6-chloro-1,2,3,4-tetrahydro-1-methyl-2-oxo-4-phenyl-3-quinolineacetamide] |  |
| 99.4% | Cc1cccc(C(C)C)c1NC(=O)C[C@@H]1C(=O)N(C)c2ccc(Cl)cc2[C@H]1c1ccccc1 (relative stereo) [Example 23, 3,4-trans-6-Chloro-1-methyl-N-[2-methyl-6-(1-methylethyl)phenyl]-2-oxo-4-phenyl-1,2,3,4-tetrahydro-3-quinolineacetamide] |  |
| 98.1% | COc1cc(OC)c(NC(=O)Cc2c(-c3ccccc3)c3cc(Cl)ccc3oc2=O)c(OC)c1 [Example 51, 6-Chloro-2-oxo-4-phenyl-N-(2,4,6-trimethoxyphenyl)-2H-1-benzopyran-3-acetamide] |  |
| 99.4% | Cc1ccccc1-c1c(CC(=O)Nc2ccc(F)cc2F)c(=O)oc2ccc(Cl)cc12 [Example 83, 6-Chloro-N-(2,4-difluorophenyl)-4-(2-methylphenyl)-2-oxo-2H-1-benzopyran-3-acetamide] |  |
| 99.3% | COc1cccc(OC)c1NC(=O)Cc1oc(=O)c2ccc(Cl)cc2c1-c1ccccc1 [Example 76, 6-Chloro-N-(2,6-dimethoxyphenyl)-1-oxo-4-phenyl-1H-2-benzopyran-3-acetamide] |  |
| 98.1% | COc1ccccc1-c1c(CC(=O)Nc2c(C(C)C)cccc2C(C)C)oc(=O)c2ccccc12 [Example 56, N-[2,6-Bis(1-methylethyl)phenyl]-4-(2-methoxyphenyl)-1-oxo-1H-2-benzopyran-3-acetamide] |  |

— patent US5482967A, “Condensed heterocyclic compounds, their production and use” (Takeda Chemical Industries, Ltd., priority 1992, dated 1996)
